One test concerns the target T1, BRC4–RAD51 interaction (Homo sapiens, UniProt Q06609).
T1 construct: purchased Creative Biomart (RAD51); Life Technologies (BRC4 peptide)
T1 sequence (Q06609 1-339): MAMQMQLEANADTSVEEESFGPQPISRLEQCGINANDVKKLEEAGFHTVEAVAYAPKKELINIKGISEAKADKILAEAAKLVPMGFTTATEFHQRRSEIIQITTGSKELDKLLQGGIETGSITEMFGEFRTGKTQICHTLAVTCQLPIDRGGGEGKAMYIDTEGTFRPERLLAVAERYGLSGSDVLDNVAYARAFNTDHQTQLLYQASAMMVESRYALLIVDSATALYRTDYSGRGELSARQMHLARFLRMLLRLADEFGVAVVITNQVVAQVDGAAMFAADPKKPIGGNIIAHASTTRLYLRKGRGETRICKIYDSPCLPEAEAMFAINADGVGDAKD
Description: Competitive biochemical ELISA assay (biotinylated BRC4 peptide vs RAD51). It is filed as binding. The method, then: To investigate the mechanism of action of the new dihydroquinolone pyrazoline derivatives, different biological assays were performed. As a primary screening, the ability of compounds 5d–57d to inhibit RAD51-BRCA2 interaction was investigated with a competitive biochemical ELISA assay against the parent compound 4d (Table 1). This assay is effective in evaluating the ability of new molecules to compete with BRC4 to bind to RAD51.[30] […] 18d–21d, 23d, 25d, 30d, and 31d were active at micromolar range, all very similar to the initial hit. […] The replacement of the aromatic ring A in combination with the substitution of the pyrazoline nitrogen with either propionyl or acetyl chain yielded compounds 33d–51d. […] As expected for PPI disruptors, the SARs of the new series of dihydroquinolone pyrazoline were rather complex to rationalize, with many cliffs and spikes that were difficult to understand. […] Accordingly, 4d, 12d, 18d, 20d–23d, 30d, 31d, 33d–36d, 39d, 45d, and 49d were submitted to cell-based study (Table 2).
Competitive ELISA screening assay using biotinylated BRC4 peptide to disrupt the BRC4–RAD51 interaction was performed by modifying the method described by Rajendra et al.[33] BRC4-biotinylated peptide (N-term biotin-[…] from Life Technologies) was used to coat 384-well plates (Nunc). After washing with PBS containing 0.05% Tween-20 (PBST) and blocking with the solution BSA 1% /PBST, overnight hybridization with human RAD51 protein (NP_002866 Creative Biomart, NY) was performed. Test compounds were added in dose response from 0.01 to 100 μM in triplicate with constant DMSO 1%. Antibody raised against RAD51 (Millipore) and HRP-secondary antibody staining to develop the 3,3′,5,5′-tetramethylbenzidine signal (Sigma) quenched with 1 M HCl was used as the assay readout. Colorimetric measure was read on a Victor5 (PerkinElmer) plate reader. BRC4 and Rad51 were included in the assay as positive control. Results were analyzed by using GraphPad software.
(ELISA stands for enzyme-linked immunosorbent assay.)

Test [1] concerns homologous recombination in BxPC3 cells. The experiment in a line: Homologous recombination assay (two-plasmid recombination, real-time PCR). It is filed as cell-based, human. As to conditions: Homo sapiens, BXPC-3; 40 μM, BxPC3, 5 h during plasmid transfection. The text has this: Our working hypothesis is that compounds disrupting RAD51-BRCA2 interaction should affect HR repair and increase the efficacy of PARPi in treating breast, ovarian, and pancreatic cancer. For its clinical relevance, pancreatic adenocarcinoma was selected as our final model for cell-based experiments, and BxPC3 cells were selected for a straightforward comparison with the previously reported triazole derivatives.[30],[31] BxPC3 is derived from a human adenocarcinoma that expresses fully functional BRCA2.[38] As shown in Table 2 and according to the rationale of our hypothesis, our preliminary screening consisted of verifying the efficacy of compounds in inhibiting cell HR and/or in increasing the antiproliferative effect of olaparib. […] HR activity was assessed by evaluating the recombination rate between two transfected plasmids, using a commercially available assay. […] As for the emissucinic acid-containing compounds (4d, 12d, 18d, 20d–23d, 30d, 31d), one of the reasons for their lower potency in cells might be the general poor permeability, likely related to the ionizable acid moiety. […] We then characterized 35d in additional biophysical and cell-based experiments.
Homologous recombination (HR) was assessed by using a commercially available assay (Norgen). This assay is based on cell transfection with two plasmids that, upon cell entry, recombine. The efficiency of HR can be assessed by real-time PCR, using primer mixtures included in the assay kit. Different primer mixtures allow one to discriminate between the original plasmid backbones and their recombination product.
BxPC3 cells (2 × 10^5 per well) were seeded in a 24-well plate and allowed to adhere overnight. Co-transfection with the two plasmids was performed in Lipofectamine 2000 (Invitrogen) according to the manufacturer’s instructions. During transfection (5 h), cells were exposed to different doses of RAD51-BRCA2 disruptors, dissolved in RPMI in the presence of 0.6% DMSO. After washing with PBS, cells were harvested, and DNA was isolated using Illustra Tissue and Cell Genomic Prep Mini Spin kit (GE Healthcare). Sample concentration was measured using an ONDA Nano Genius photometer. The efficiency of HR was assessed by real-time PCR, using 25 ng of template, the primer mixtures included in the assay kit and following the protocol indicated by the manufacturer. Data analysis was based on the ΔΔCt method: [recombination product/backbone plasmids]^treated versus [recombination product/backbone plasmids]^control.
A general note: Quantitative PCR measures a nucleic acid by following its amplification.

Setting [2] is: competition with BRC4 for RAD51, triplicate, ± standard deviation, NA = not active, racemic mixtures unless enantiomer named, read-out: EC50 (μM) on ELISA assay.
Where [3] appears, read: competition with BRC4 for RAD51, triplicate, ± standard deviation, NA = not active, racemic mixtures unless enantiomer named.

Results on 19 molecules are retold here after PMC7997579, “Synthetic Lethality in Pancreatic Cancer: Discovery of a New RAD51-BRCA2 Small Molecule Disruptor That Inhibits Homologous Recombination and Synergizes with Olaparib” (Journal of Medicinal Chemistry, 2020).

Read-outs that look alike come from different tables or passages of the source.

Usually EC50 stands for the concentration needed to bring the measured effect to its halfway point. In general, inhibition refers to the percentage by which the read-out fell short of the control.

For the molecule `O=C(O)CCC(=O)N1N=C(c2c(-c3ccccc3)c3cc(Cl)ccc3[nH]c2=O)CC1c1ccc(F)cc1` (stereo not drawn) [Compound 4d, 4-(3-(6-Chloro-2-oxo-4-phenyl-1,2-dihydroquinolin-3-yl)-5-(4-fluorophenyl)-4,5-dihydro-1H-pyrazol-1-yl)-4-oxobutanoic Acid], the half-maximal effective concentration (EC50) at BRC4–RAD51 interaction (Table 2, compounds selected for cell-based study, read-out: EC50 ELISA) was 16 ± 4 µM; on BRC4–RAD51 interaction (setting [2]), 16 ± 4 µM. In addition, in test [1], the inhibition at 40 µM came out at 10%. Regarding `CC(=O)N1N=C(c2c(-c3ccccc3)c3cc(Cl)ccc3[nH]c2=O)CC1c1ccc(F)cc1` (stereo not drawn) [Compound 5d, 3-(1-Acetyl-5-(4-fluorophenyl)-4,5-dihydro-1H-pyrazol-3-yl)-6-chloro-4-phenylquinolin-2(1H)-one], at BRC4–RAD51 interaction (setting [2]), the concentration giving a half-maximal response (EC50) turned out to be 50 ± 10 µM. With `CCC(=O)N1N=C(c2c(-c3ccccc3)c3cc(Cl)ccc3[nH]c2=O)CC1c1ccc(F)cc1` (stereo not drawn) [Compound 6d, 6-Chloro-3-(5-(4-fluorophenyl)-1-propionyl-4,5-dihydro-1H-pyrazol-3-yl)-4-phenylquinolin-2(1H)-one], the EC50 at BRC4–RAD51 interaction (setting [2]) came out at 34 ± 3 µM.

With `O=C(O)CCC(=O)N1N=C(c2c(-c3ccccc3)c3cc(Cl)ccc3[nH]c2=O)CC1c1ccc(Cl)cc1` (stereo not drawn) [Compound 11d, 4-(3-(6-Chloro-2-oxo-4-phenyl-1,2-dihydroquinolin-3-yl)-5-(4-chlorophenyl)-4,5-dihydro-1H-pyrazol-1-yl)-4-oxobutanoic Acid], on BRC4–RAD51 interaction (setting [2]), the concentration giving a half-maximal response (EC50) came to 59 ± 8 µM.

On to `O=C(O)CCC(=O)N1N=C(c2c(-c3ccccc3)c3cc(Cl)ccc3[nH]c2=O)CC1c1ccc(C(F)(F)F)cc1` (stereo not drawn) [Compound 16d, 4-(3-(6-Chloro-2-oxo-4-phenyl-1,2-dihydroquinolin-3-yl)-5-(4-(trifluoromethyl)phenyl)-4,5-dihydro-1H-pyrazol-1-yl)-4-oxobutanoic Acid], for which the EC50 at BRC4–RAD51 interaction (setting [2]) was found to be 29 ± 2 µM. On to `O=C(O)CCC(=O)N1N=C(c2c(-c3ccccc3)c3cc(Cl)ccc3[nH]c2=O)CC1c1ccc(-c2ccc(Cl)cc2)cc1` (stereo not drawn) [Compound 19d, 4-(3-(6-Chloro-2-oxo-4-phenyl-1,2-dihydroquinolin-3-yl)-5-(4′-chloro-[1,1′-biphenyl]-4-yl)-4,5-dihydro-1H-pyrazol-1-yl)-4-oxobutanoic Acid], for which the EC50 on BRC4–RAD51 interaction (setting [2]) was found to be 25 ± 5 µM.

Turning to `CCn1ncc2cc(C3CC(c4c(-c5ccccc5)c5cc(Cl)ccc5[nH]c4=O)=NN3C(=O)CCC(=O)O)ccc21` (stereo not drawn) [Compound 24d, 4-(3-(6-Chloro-2-oxo-4-phenyl-1,2-dihydroquinolin-3-yl)-5-(1-ethyl-1H-indazol-5-yl)-4,5-dihydro-1H-pyrazol-1-yl)-4-oxobutanoic Acid], the “EC50 (μM) on ELISA assay” value on BRC4–RAD51 interaction (setting [3]) was “inactive”. In the case of `CCn1cc2cc(C3CC(c4c(-c5ccccc5)c5cc(Cl)ccc5[nH]c4=O)=NN3C(=O)CCC(=O)O)ccc2n1` (stereo not drawn) [Compound 25d, 4-(3-(6-Chloro-2-oxo-4-phenyl-1,2-dihydroquinolin-3-yl)-5-(2-ethyl-2H-indazol-5-yl)-4,5-dihydro-1H-pyrazol-1-yl)-4-oxobutanoic Acid], on BRC4–RAD51 interaction (setting [2]), the concentration giving a half-maximal response (EC50) was 28 ± 4 µM. On the same count and under the same terms, the same measure for `CCCn1cc(-c2ccc(C3CC(c4c(-c5ccccc5)c5cc(Cl)ccc5[nH]c4=O)=NN3C(=O)CCC(=O)O)cc2)cn1` (stereo not drawn) [Compound 32d, 4-(3-(6-Chloro-2-oxo-4-phenyl-1,2-dihydroquinolin-3-yl)-5-(4-(1-propyl-1H-pyrazol-4-yl)phenyl)-4,5-dihydro-1H-pyrazol-1-yl)-4-oxobutanoic Acid]: 65 ± 5 µM; for `CC(=O)N1N=C(c2c(-c3ccccc3)c3cc(Cl)ccc3[nH]c2=O)CC1c1ccc(Br)cc1` (stereo not drawn) [Compound 37d, 3-(1-Acetyl-5-(4-bromophenyl)-4,5-dihydro-1H-pyrazol-3-yl)-6-chloro-4-phenylquinolin-2(1H)-one]: 38 ± 7 µM. For the molecule `COc1ccc(C2CC(c3c(-c4ccccc4)c4cc(Cl)ccc4[nH]c3=O)=NN2C(C)=O)cc1` (stereo not drawn) [Compound 38d, 3-(1-Acetyl-5-(4-methoxyphenyl)-4,5-dihydro-1H-pyrazol-3-yl)-6-chloro-4-phenylquinolin-2(1H)-one], the “EC50 (μM) on ELISA assay” value on BRC4–RAD51 interaction (setting [3]) is “inactive”.

In the case of `CC(=O)N1N=C(c2c(-c3ccccc3)c3cc(Cl)ccc3[nH]c2=O)CC1c1ccc(-c2ccc(Cl)cc2)cc1` (stereo not drawn) [Compound 42d, 3-(1-Acetyl-5-(4′-chloro-[1,1′-biphenyl]-4-yl)-4,5-dihydro-1H-pyrazol-3-yl)-6-chloro-4-phenylquinolin-2(1H)-one], the 50% effective concentration (EC50) at BRC4–RAD51 interaction (setting [2]) came out at 45 ± 8 µM.

On to `CC(=O)N1N=C(c2c(-c3ccccc3)c3cc(Cl)ccc3[nH]c2=O)CC1c1ccc(-c2ccc(Br)cc2)cc1` (stereo not drawn) [Compound 43d, 3-(1-Acetyl-5-(4′-bromo-[1,1′-biphenyl]-4-yl)-4,5-dihydro-1H-pyrazol-3-yl)-6-chloro-4-phenylquinolin-2(1H)-one], for which the 50% effective concentration (EC50) on BRC4–RAD51 interaction (setting [2]) came out at 70 ± 15 µM.

As for `COc1ccc(-c2ccc(C3CC(c4c(-c5ccccc5)c5cc(Cl)ccc5[nH]c4=O)=NN3C(C)=O)cc2)cc1` (stereo not drawn) [Compound 44d, 3-(1-Acetyl-5-(4′-methoxy-[1,1′-biphenyl]-4-yl)-4,5-dihydro-1H-pyrazol-3-yl)-6-chloro-4-phenylquinolin-2(1H)-one], the concentration giving a half-maximal response (EC50) on BRC4–RAD51 interaction (setting [2]) is 70 ± 6 µM. For `CCn1ccc2cc(C3CC(c4c(-c5ccccc5)c5cc(Cl)ccc5[nH]c4=O)=NN3C(C)=O)ccc21` (stereo not drawn) [Compound 46d, 3-(1-Acetyl-5-(1-ethyl-1H-indol-5-yl)-4,5-dihydro-1H-pyrazol-3-yl)-6-chloro-4-phenylquinolin-2(1H)-one], on BRC4–RAD51 interaction (setting [2]), the concentration for a half-maximal effect (EC50) came out at 50 ± 15 µM.

On to `CCn1ncc2cc(C3CC(c4c(-c5ccccc5)c5cc(Cl)ccc5[nH]c4=O)=NN3C(C)=O)ccc21` (stereo not drawn) [Compound 47d, 3-(1-Acetyl-5-(1-ethyl-1H-indazol-5-yl)-4,5-dihydro-1H-pyrazol-3-yl)-6-chloro-4-phenylquinolin-2(1H)-one], for which the EC50 on BRC4–RAD51 interaction (setting [2]) amounted to 40 ± 3 µM. Take `CCn1cc2cc(C3CC(c4c(-c5ccccc5)c5cc(Cl)ccc5[nH]c4=O)=NN3C(C)=O)ccc2n1` (stereo not drawn) [Compound 48d, 3-(1-Acetyl-5-(2-ethyl-2H-indazol-5-yl)-4,5-dihydro-1H-pyrazol-3-yl)-6-chloro-4-phenylquinolin-2(1H)-one]: the “EC50 (μM) on ELISA assay” value on BRC4–RAD51 interaction (setting [3]) is “inactive”. On to `CCCn1cc2cc(C3CC(c4c(-c5ccccc5)c5cc(Cl)ccc5[nH]c4=O)=NN3C(C)=O)ccc2n1` (stereo not drawn) [Compound 50d, 3-(1-Acetyl-5-(2-propyl-2H-indazol-5-yl)-4,5-dihydro-1H-pyrazol-3-yl)-6-chloro-4-phenylquinolin-2(1H)-one], for which, on BRC4–RAD51 interaction (setting [3]), the “EC50 (μM) on ELISA assay” value is “inactive”. As for `CCCn1cc(-c2ccc(C3CC(c4c(-c5ccccc5)c5cc(Cl)ccc5[nH]c4=O)=NN3C(C)=O)cc2)cn1` (stereo not drawn) [Compound 51d, 3-(1-Acetyl-5-(4-(1-propyl-1H-pyrazol-4-yl)phenyl)-4,5-dihydro-1H-pyrazol-3-yl)-6-chloro-4-phenylquinolin-2(1H)-one], the EC50 on BRC4–RAD51 interaction (setting [2]) was found to be 46 ± 9 µM.
